Our source for the IC50 and Kd values is ChEMBL document CHEMBL5108037, “Cyclic Peptide Screening Methods for Preclinical Drug Discovery” (J Med Chem, 2022).

Assay [1] can be described thus: Inhibition of NDM-1 (unknown origin). On the set-up: species or system Bacteria.
Assay [2] can be described thus: Inhibition of FphF (unknown origin) using Cy5-ENLYFQGK(QSY21)-NH2 as substrate incubated for 1 hr by fluorescence based analysis. On the set-up: species or system Homo sapiens.
For the next assay, the target named is Sonic hedgehog protein (Homo sapiens, UniProt Q15465). As to the kind of experiment: Binding affinity to SHH (unknown origin) assessed as dissociation constant by calorimetric analysis.
A short description of assay [3]: Binding affinity to Carbonic anhydrase (unknown origin) assessed as dissociation constant by isothermal titration calorimetry. On the set-up: species or system Homo sapiens.
For another assay, the target named is T1, TCF4-CTNNB1 complex (Homo sapiens, UniProt P35222).
T1 sequence (P35222 whole entry): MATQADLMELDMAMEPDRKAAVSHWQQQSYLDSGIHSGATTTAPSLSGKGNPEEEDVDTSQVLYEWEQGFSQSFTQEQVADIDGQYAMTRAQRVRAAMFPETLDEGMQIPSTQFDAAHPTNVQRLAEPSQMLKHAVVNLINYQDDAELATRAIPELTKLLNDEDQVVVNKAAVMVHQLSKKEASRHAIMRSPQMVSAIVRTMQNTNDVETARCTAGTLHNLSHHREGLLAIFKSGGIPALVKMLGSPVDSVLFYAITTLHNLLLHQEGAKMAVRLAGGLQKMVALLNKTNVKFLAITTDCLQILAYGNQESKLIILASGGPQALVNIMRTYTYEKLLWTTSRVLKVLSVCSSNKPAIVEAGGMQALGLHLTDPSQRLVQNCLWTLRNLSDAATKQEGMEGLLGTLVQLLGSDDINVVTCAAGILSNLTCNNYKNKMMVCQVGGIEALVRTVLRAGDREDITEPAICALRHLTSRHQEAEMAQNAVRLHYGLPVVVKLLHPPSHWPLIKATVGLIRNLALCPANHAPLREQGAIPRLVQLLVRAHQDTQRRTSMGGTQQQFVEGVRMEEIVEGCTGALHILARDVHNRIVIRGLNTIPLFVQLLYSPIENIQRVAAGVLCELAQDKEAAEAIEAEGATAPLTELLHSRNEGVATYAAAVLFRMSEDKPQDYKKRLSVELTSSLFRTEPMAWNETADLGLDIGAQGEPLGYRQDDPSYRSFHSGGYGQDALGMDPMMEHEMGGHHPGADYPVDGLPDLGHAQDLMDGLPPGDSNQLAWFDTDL
T1 sequence (P15884 whole entry): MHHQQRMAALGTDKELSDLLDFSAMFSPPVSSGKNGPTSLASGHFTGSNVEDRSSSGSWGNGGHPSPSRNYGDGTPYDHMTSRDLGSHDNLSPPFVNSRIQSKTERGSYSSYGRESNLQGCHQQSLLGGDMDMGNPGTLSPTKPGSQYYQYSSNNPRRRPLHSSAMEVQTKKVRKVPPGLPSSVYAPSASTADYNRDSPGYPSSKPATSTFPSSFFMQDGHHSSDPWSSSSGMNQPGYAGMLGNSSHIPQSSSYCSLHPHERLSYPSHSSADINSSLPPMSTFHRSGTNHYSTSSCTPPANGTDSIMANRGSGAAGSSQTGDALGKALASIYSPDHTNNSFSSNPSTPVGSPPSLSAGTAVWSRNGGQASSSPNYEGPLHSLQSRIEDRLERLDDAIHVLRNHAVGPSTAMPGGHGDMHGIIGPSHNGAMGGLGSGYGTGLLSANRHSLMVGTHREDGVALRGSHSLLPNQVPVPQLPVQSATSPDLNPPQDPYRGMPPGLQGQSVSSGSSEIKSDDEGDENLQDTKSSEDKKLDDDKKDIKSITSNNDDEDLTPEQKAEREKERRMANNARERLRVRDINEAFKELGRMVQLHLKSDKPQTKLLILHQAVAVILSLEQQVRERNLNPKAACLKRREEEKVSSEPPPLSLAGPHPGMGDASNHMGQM
Description: Inhibition of FITC-labeled Tcf4 (unknown origin) / full length beta-catenin (1 to 781 residues) (unknown origin) protein-protein interaction measured after 1 hr by fluorescence polarization assay. Format: protein-complex assay.

The target in assay [4] is T2, Protein deacetylase HDAC6 (Homo sapiens, UniProt Q9UBN7).
T2 sequence (Q9UBN7 whole entry): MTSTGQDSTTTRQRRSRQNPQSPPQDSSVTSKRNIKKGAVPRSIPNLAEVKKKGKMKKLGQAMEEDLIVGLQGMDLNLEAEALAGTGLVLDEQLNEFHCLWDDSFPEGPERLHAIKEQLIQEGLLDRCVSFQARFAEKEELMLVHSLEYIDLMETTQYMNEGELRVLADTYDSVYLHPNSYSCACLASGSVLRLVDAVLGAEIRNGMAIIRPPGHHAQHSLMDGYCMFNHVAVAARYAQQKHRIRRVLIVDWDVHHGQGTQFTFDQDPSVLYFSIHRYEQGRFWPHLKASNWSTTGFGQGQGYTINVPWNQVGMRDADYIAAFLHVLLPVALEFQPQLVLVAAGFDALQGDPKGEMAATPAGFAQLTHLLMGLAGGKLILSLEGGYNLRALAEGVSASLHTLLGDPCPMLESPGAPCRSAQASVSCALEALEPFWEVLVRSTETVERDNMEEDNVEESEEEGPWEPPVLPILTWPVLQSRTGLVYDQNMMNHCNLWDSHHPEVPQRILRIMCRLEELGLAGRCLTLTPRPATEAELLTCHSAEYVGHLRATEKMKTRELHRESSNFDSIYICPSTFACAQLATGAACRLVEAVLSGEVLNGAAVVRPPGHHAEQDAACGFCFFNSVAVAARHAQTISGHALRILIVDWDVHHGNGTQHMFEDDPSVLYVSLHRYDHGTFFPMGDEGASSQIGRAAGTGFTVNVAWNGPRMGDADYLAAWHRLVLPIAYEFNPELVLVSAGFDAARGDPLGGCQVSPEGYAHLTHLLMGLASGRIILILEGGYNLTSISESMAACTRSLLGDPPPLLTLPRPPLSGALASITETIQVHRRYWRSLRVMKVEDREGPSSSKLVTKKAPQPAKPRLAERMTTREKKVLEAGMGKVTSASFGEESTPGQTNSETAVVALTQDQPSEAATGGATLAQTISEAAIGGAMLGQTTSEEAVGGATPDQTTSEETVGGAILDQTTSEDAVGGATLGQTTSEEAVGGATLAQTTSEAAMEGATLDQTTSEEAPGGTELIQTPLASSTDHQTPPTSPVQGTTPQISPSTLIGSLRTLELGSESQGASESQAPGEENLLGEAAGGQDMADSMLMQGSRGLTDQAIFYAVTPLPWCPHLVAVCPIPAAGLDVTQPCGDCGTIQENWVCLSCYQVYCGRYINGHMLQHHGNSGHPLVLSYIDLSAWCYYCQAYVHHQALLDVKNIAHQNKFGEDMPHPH
As to the kind of experiment: Inhibition of HDAC6 (unknown origin).

Starred links: 1 amine or outer side, 2 acyl side, 3 side chain; linkers in the order of their positions; H or OH if unused. Positions of bridges follow the written chain, without caps; N, C: chain ends. Non-standard residues stand in square brackets, D forms with d. Residues, ends and D or L forms follow the SMILES beside them. Gly((CH2)5SH) = N[C@@H](CCCCCS)C(=O)O; mXylylene = c1cc(C[*:1])cc(C[*:2])c1; Nle = CCCC[C@H](N)C(=O)O; CH2CH2 = C(C[*:2])[*:1]; βAla = NCCC(=O)O

Chain of Sonic hedgehog protein (Q15465 24-197 limits assumed): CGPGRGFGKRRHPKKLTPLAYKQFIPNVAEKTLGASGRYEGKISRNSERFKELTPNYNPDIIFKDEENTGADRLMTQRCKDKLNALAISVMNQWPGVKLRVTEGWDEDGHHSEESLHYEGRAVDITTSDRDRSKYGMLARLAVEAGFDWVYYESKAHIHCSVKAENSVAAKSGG

With `CC[C@H](C)[C@@H]1NC(=O)[C@@H]2CCCN2C(=O)[C@H](CC(=O)O)NC(=O)[C@H](CCCNC(=N)N)NC(=O)[C@H](CCCNC(=N)N)NC(=O)[C@H](CC(C)C)NC(=O)[C@H](CS)NC(=O)[C@@H]2CCCN2C1=O` (cyclo(CLRRDPIP)), the half-maximal inhibitory concentration (IC50) in assay [1] came to 1200 nM.
On the same count and under the same terms, the figure for `C[C@@H](CS)C(=O)N1CCC[C@@H]1C(=O)O` is 59700 nM.
As for `CSCC[C@@H]1NC(=O)[C@H](Cc2c[nH]c3ccccc23)NC(=O)[C@H](CCCNC(=N)N)NC(=O)[C@H](Cc2c[nH]c3ccccc23)NC(=O)[C@H](CCCNC(=N)N)NC(=O)[C@H](C)NC(=O)[C@@H](NC(=O)[C@@H](N)C(C)C)CSC/C(=N/OCC(=O)CP(=O)(Oc2ccccc2)Oc2ccccc2)CSC[C@@H](C(=O)NCC(=O)O)NC(=O)[C@@H]2CCCN2C1=O`, it took 647 nM to reach half-maximal inhibition in assay [2] (IC50).
Regarding `CSCC[C@@H]1NC(=O)[C@H](C)NC(=O)[C@H](CCC(=O)O)NC(=O)[C@@H](NC(=O)[C@@H]2CCCN2C(=O)[C@H](CO)NC(=O)[C@H](CO)NC(=O)CN)Cc2ccc(cc2)OCCSC[C@@H](C(=O)N[C@H](C(=O)N[C@@H](CC(=O)O)C(=O)N[C@H](C(=O)NCC(=O)O)[C@@H](C)O)[C@@H](C)O)NC(=O)[C@H](CCSC)NC(=O)[C@H](CC(=O)O)NC1=O` (H-GSSPYEAMDMCTDTG-OH; linker 5-11 via CH2CH2), the Kd at Sonic hedgehog protein is 550 nM.
`NNc1ccc(S(N)(=O)=O)cc1`: the Kd in assay [3] was 50000 nM.
`CC(C)C[C@@H]1NC(=O)[C@@H]2CSCc3cccc(c3)CSC[C@H](NC(=O)[C@H](CC(N)=O)NC(=O)[C@H](CCCNC(=N)N)NC(=O)[C@H]([C@@H](C)O)NC(=O)[C@H](C(C)C)NC(=O)CCNC(=O)CCNC(=O)[C@H](Cc3ccccc3)NC(=O)[C@H](C(C)C)NC(=O)[C@H](CC(C)C)NC1=O)C(=O)N[C@@H](C(C)C)C(=O)N1CCC[C@H]1C(=O)N1CCC[C@H]1C(=O)N[C@@H](CC(=O)O)C(=O)N2` (cyclo(CLLVF[βAla][βAla]VTRNCVPPD); linker 1-12 via mXylylene) came in with an IC50 against TCF4-CTNNB1 complex of 4800 nM.
Compound `CCCC[C@@H]1NC(=O)[C@H](Cc2ccccc2)NC(=O)[C@H](CCCCCS)NC(=O)[C@H](CCCNC(=N)N)NC(=O)[C@H](CC(=O)O)NC(=O)[C@H](CO)NC(=O)[C@H](C)NC(=O)[C@H](CCCCN)NC1=O` (cyclo(ASDR[Gly((CH2)5SH)]F[Nle]K)) showed an IC50 in assay [4] of 17 nM.
